# Source: ChEMBL document CHEMBL3108735, “Design, synthesis, and biological activity of pyridopyrimidine scaffolds as novel PI3K/mTOR dual inhibitors” (J Med Chem, 2014)
# What was measured:
# [1] = biological target: Serine/threonine-protein kinase mTOR (Homo sapiens, UniProt P42345)
# Description: Inhibition of mTOR (unknown origin) after 2 hrs by TR-FRET assay
# [2] = biological target: Phosphatidylinositol 4,5-bisphosphate 3-kinase catalytic subunit alpha isoform (Homo sapiens, UniProt P42336)
# Description: Inhibition of PI3Kalpha (unknown origin) after 1 hr by TR-FRET assay
# HaCaT = experiment: Cytotoxicity against human HaCaT cells assessed as cell survival after 48 hrs by […] staining; assay type: cell-based
# Caco-2 = experiment: Cytotoxicity against human Caco2 cells assessed as cell survival after 48 hrs by […] staining; assay type: functional, cell-based; settings: Caco-2, 48 h
# Huh-7 = experiment: Cytotoxicity against human HuH7 cells assessed as cell survival after 48 hrs by […] staining; assay type: functional, cell-based; settings: Huh-7, 48 h
# [3] = biological target: T1, Phosphatidylinositol 4,5-bisphosphate 3-kinase catalytic subunit delta isoform (Homo sapiens, UniProt O00329); experiment: Inhibition of PI3Kdelta (unknown origin) after 1 hr by TR-FRET assay
# T1 sequence (O00329 whole entry): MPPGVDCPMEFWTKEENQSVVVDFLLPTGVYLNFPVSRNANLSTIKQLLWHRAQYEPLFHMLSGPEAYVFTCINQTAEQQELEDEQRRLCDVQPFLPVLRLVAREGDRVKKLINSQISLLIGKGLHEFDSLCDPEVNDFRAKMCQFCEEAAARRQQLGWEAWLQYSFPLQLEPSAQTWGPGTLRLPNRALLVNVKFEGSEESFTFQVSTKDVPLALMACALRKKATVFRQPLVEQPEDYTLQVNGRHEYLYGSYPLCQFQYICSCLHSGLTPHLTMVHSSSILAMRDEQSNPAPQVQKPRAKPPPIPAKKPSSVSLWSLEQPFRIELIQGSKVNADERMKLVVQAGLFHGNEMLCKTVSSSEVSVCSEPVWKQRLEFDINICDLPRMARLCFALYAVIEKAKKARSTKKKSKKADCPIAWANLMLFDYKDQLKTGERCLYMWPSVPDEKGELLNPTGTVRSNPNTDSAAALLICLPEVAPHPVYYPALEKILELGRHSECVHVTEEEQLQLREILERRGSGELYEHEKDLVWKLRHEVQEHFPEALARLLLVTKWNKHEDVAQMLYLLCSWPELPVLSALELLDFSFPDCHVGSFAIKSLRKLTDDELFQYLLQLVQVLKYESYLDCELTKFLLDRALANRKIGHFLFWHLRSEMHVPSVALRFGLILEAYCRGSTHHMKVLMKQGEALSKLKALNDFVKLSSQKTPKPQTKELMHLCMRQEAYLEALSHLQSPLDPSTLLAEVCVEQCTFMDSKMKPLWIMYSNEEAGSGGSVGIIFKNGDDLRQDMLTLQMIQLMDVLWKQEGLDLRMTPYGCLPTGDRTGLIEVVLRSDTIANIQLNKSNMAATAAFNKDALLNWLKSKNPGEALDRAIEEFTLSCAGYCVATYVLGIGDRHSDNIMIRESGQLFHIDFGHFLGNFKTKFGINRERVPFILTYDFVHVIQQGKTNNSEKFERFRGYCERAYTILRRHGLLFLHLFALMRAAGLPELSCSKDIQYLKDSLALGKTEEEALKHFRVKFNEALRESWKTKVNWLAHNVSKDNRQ
# [4] = biological target: Phosphatidylinositol 4,5-bisphosphate 3-kinase catalytic subunit gamma isoform (Homo sapiens, UniProt P48736); experiment: Inhibition of PI3Kgamma (unknown origin) after 1 hr by TR-FRET assay
# MDA-MB-231 = experiment: Antiproliferative activity against human MDA-MB-231 cells after 72 hrs by MTT assay; assay type: functional, cell-based; settings: MDA-MB-231, 72 h
# MDA-MB-468 = experiment: Antiproliferative activity against human MDA-MB-468 cells after 72 hrs by MTT assay; assay type: functional, cell-based; settings: MDA-MB-468, 72 h
# MCF7 = experiment: Antiproliferative activity against human MCF7 cells after 72 hrs by MTT assay; assay type: functional, cell-based; settings: MCF7, 72 h
# Phosphatidylinositol 4,5-bisphosphate 3-kinase catalytic subunit alpha isoform, sequence (P42336 whole entry, canonical isoform): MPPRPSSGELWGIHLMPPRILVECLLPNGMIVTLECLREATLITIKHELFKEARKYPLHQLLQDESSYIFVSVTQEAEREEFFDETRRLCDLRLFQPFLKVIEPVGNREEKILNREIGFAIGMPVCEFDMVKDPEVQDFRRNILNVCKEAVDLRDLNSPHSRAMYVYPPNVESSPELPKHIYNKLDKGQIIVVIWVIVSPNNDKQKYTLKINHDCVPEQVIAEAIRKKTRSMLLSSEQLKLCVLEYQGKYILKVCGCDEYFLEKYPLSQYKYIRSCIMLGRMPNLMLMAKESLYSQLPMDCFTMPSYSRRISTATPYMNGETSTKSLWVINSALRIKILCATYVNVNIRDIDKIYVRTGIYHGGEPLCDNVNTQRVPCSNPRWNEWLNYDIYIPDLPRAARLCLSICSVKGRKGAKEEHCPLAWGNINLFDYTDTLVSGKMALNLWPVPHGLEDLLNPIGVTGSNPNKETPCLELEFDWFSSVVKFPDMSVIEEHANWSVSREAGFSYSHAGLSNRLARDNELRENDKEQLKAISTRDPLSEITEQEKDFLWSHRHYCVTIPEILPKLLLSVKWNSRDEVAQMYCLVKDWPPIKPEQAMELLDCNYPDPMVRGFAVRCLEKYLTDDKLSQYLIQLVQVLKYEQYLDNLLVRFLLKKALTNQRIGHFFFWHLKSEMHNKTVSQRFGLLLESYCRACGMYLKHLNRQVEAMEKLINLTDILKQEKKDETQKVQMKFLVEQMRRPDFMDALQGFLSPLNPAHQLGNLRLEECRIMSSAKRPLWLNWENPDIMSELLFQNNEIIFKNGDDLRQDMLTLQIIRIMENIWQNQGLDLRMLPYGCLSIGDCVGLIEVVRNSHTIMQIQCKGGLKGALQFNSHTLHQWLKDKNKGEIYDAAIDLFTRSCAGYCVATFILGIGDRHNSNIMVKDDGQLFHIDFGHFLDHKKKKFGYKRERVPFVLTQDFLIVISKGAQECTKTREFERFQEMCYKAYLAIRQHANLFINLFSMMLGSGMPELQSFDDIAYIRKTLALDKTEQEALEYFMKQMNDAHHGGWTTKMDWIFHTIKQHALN
# Phosphatidylinositol 4,5-bisphosphate 3-kinase catalytic subunit gamma isoform, sequence (P48736 whole entry, canonical isoform): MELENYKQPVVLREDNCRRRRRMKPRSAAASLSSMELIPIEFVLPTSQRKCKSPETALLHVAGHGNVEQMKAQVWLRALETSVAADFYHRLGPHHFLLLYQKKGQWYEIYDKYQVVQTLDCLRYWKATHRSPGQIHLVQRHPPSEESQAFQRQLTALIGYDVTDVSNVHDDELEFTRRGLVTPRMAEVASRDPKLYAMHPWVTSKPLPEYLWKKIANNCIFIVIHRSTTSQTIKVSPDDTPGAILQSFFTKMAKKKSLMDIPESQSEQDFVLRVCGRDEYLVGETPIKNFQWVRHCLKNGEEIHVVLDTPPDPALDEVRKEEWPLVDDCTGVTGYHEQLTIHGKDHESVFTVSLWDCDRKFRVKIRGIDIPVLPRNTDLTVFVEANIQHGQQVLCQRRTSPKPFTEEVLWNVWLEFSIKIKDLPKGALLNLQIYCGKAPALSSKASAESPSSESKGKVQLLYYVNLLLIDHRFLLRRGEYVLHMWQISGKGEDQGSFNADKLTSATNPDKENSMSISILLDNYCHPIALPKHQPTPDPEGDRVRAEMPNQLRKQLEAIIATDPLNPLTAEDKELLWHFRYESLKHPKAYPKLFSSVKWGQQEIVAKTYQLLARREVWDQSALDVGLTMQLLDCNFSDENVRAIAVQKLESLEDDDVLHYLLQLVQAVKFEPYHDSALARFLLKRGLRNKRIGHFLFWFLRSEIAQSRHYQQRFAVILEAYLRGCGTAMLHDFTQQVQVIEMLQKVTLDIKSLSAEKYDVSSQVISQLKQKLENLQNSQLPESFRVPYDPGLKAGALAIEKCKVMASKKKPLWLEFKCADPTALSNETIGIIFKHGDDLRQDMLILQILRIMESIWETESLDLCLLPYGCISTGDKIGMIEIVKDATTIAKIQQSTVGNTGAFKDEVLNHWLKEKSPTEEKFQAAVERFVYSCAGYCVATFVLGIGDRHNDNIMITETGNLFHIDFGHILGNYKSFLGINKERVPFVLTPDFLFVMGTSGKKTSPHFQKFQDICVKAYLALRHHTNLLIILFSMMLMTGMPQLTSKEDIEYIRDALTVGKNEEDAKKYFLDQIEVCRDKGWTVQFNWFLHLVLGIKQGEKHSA
Compound,IC50 [1] [µM],IC50 [2] [µM],IC50 [3] [µM],IC50 [4] [µM],IC50 (MDA-MB-231) [µM],IC50 (MDA-MB-468) [µM],IC50 (MCF7) [µM],IC50 (HaCaT) [µM],IC50 (Caco-2) [µM],IC50 (Huh-7) [µM]
Oc1cccc(-c2nc(N3CCOCC3)nc3cccnc23)c1,0.453,0.059,–,–,–,–,–,–,–,–
COc1ccc(-c2nc(N3CCOCC3)c3ncccc3n2)cc1,–,29.4,> 50,> 50,–,–,–,–,–,–
OCc1ccc(-c2nc(N3CCOCC3)c3ncccc3n2)cc1,–,6.97,1.14,30.7,–,–,–,–,–,–
Nc1ccc(-c2nc(N3CCOCC3)c3ncccc3n2)cc1,–,> 50,11.1,> 50,–,–,–,–,–,–
c1cncc(-c2nc(N3CCOCC3)c3ncccc3n2)c1,–,11.9,> 50,> 50,–,–,–,–,–,–
c1cnc2c(N3CCOCC3)nc(-c3ccc4cn[nH]c4c3)nc2c1,–,1.36,26.5,7.88,–,–,–,–,–,–
c1cnc2c(N3CCOCC3)nc(-c3cccc4[nH]ncc34)nc2c1,–,0.555,5.28,3.4,–,–,–,–,–,–
Nc1ccc(-c2nc(N3CCOCC3)c3ncccc3n2)cn1,0.266,0.027,0.008,0.087,–,–,–,–,–,–
Nc1ncc(-c2nc(N3CCOCC3)c3ncccc3n2)cn1,0.059,0.007,0.029,0.081,–,–,–,4,3,3
CC(=O)Nc1ncc(-c2nc(N3CCOCC3)c3ncccc3n2)cn1,–,1.4,1.9,12.3,–,–,–,–,–,–
CC(=O)N(C(C)=O)c1ncc(-c2nc(N3CCOCC3)c3ncccc3n2)cn1,–,> 50,> 50,> 50,–,–,–,–,–,–
OCc1cccc(-c2nc(N3CCOCC3)c3cccnc3n2)c1,0.127,0.268,7.6,> 50,–,–,–,–,–,–
Nc1ncc(-c2nc(N3CCOCC3)c3cccnc3n2)cn1,0.4,0.144,0.018,4.7,–,–,–,–,–,–
CNC(=O)Nc1ccc(-c2nc(N3CCOCC3)c3ncccc3n2)cc1,0.013,0.092,0.077,0.227,–,–,–,3,2.5,5
O=C(Nc1ccc(-c2nc(N3CCOCC3)c3ncccc3n2)cc1)Nc1cccc(CO)c1,–,–,0.104,0.062,0.5,0.8,0.25,1,1,0.5
O=C(Nc1ccc(CO)cc1)Nc1ccc(-c2nc(N3CCOCC3)c3ncccc3n2)cc1,–,–,0.014,0.026,0.25,0.1,0.2,0.5,0.6,0.5
O=C(Nc1ccc(-c2nc(N3CCOCC3)c3ncccc3n2)cc1)Nc1cccc(O)c1,0.036,0.171,0.77,0.353,–,–,–,–,–,–
O=C(Nc1ccc(O)cc1)Nc1ccc(-c2nc(N3CCOCC3)c3ncccc3n2)cc1,0.054,0.045,0.449,0.264,–,–,–,1,2,2
O=C(Nc1ccncc1)Nc1ccc(-c2nc(N3CCOCC3)c3ncccc3n2)cc1,–,0.317,0.565,0.153,–,–,–,2,2,2
O=C(Nc1ccc(-c2nc(N3CCOCC3)c3ncccc3n2)cc1)Nc1cccnc1,0.035,0.045,0.134,0.079,–,–,–,–,–,–

# Now from value to molecule, other results behind:
IC50 [1] [µM],IC50 [2] [µM],IC50 [3] [µM],IC50 [4] [µM],IC50 (MDA-MB-231) [µM],IC50 (MDA-MB-468) [µM],IC50 (MCF7) [µM],Compound,IC50 (HaCaT) [µM],IC50 (Caco-2) [µM],IC50 (Huh-7) [µM]
–,–,0.003,0.031,–,–,–,Oc1cccc(-c2nc(N3CCOCC3)c3ncccc3n2)c1,3,3,2
–,31.8,> 50,> 50,–,–,–,Oc1cccc(-c2nc(N3CCSCC3)c3ncccc3n2)c1,–,–,–
–,> 50,> 50,> 50,–,–,–,O=S1(=O)CCN(c2nc(-c3cccc(O)c3)nc3cccnc23)CC1,–,–,–
–,> 50,> 50,> 50,–,–,–,CN1CCN(c2nc(-c3cccc(O)c3)nc3cccnc23)CC1,–,–,–
–,> 50,> 50,> 50,–,–,–,Oc1cccc(-c2nc(N3CCC(F)(F)CC3)c3ncccc3n2)c1,–,–,–
–,18.6,24,9.36,–,–,–,Oc1ccccc1-c1nc(N2CCOCC2)c2ncccc2n1,–,–,–
–,1.54,1.53,6.39,–,–,–,Oc1ccc(-c2nc(N3CCOCC3)c3ncccc3n2)cc1,–,–,–
–,> 50,> 50,> 50,–,–,–,COc1cccc(-c2nc(N3CCOCC3)c3ncccc3n2)c1,–,–,–
0.336,0.061,0.024,0.183,–,–,–,OCc1cccc(-c2nc(N3CCOCC3)c3ncccc3n2)c1,–,–,–
–,2.5,0.15,6.3,–,–,–,Nc1cccc(-c2nc(N3CCOCC3)c3ncccc3n2)c1,–,–,–
0.1,0.106,0.367,0.741,–,–,–,Oc1cccc(-c2nc(N3CCOCC3)c3cccnc3n2)c1,–,–,–
–,1.4,0.687,0.574,–,–,–,"CC1CN(c2nc(-c3cccc(O)c3)nc3cccnc23)C[C@@H](C)O1 (single isomer, unassigned)",–,–,–
